Like-named read-outs stand apart in the source and are kept apart here.
Tests used:
eosinophils [1] = tested on: eosinophils
Procedure: In a 39-week repeat-dose toxicology study, minipigs were dosed at 0, 7.5, 25, and 75 mg/kg dexpramipexole by daily oral gavage through Study Day 45 and at 0, 7.5, 25, and 50 mg/kg dexpramipexole from Study Day 46 to study completion.

eosinophils [2] = conditions: for mean eosinophils at week 16 recovered to, of baseline levels: after one-month washout following week 12
Procedure: The Phase 2 trial was a two-part, double-blind study that evaluated the safety, tolerability, and clinical effects of dexpramipexole in ALS patients.
In Part 1, subjects were randomized to placebo (n=27), 50 mg/day (n=23), 150 mg/day (n=26), or 300 mg/day dexpramipexole (n=26) for 12 weeks.

eosinophils [3] = tested on: eosinophils; remark: listed apart in the source
Procedure: (§1) The phase 3 clinical trial was a double-blind study of dexpramipexole in ALS patients randomized 1:1 to placebo or dexpramipexole 300 mg daily treatment. Hematology parameters were collected as part of routine safety monitoring. Eosinophil and basophil counts were retrospectively analyzed by visit.
Eosinophil levels were summarized over available time points and analyzed by ANOVA testing the effect of treatment vs. placebo on mean changes in serum eosinophil counts from baseline. Subjects with baseline eosinophils from 0 to 0.02×10^9/L (constituting less than 2% of all subjects analyzed) were censored from the primary analysis because of the inherent limitation to observe a decline from baseline.
Statistical analysis of the change from baseline was performed at month 6 to remove the effect of study dropouts in later months.

basophils = conditions: 300 mg daily, remained reduced through month 12
Procedure: as §1
Changes in basophil counts were also analyzed in the Phase 3 trial.

eosinophils [4] = conditions: OVA mice, 100 mg/kg, day 42, p=0.0041
[5] = tested on: infiltrating white blood cells; conditions: OVA mice, 30 and 100 mg/kg, day 42, compared to OVA
[6] = humans, exposures up to 18 months

SMILES: CCCN[C@@H]1CCc2nc(N)sc2C1 [dexpramipexole, (6R)-2-amino-4,5,6,7-tetrahydro-6-(propylamino)benzothiazole]
- safety assessment of eosinophil differences (eosinophils [1]; minipig, in vivo): not considered adverse
- effect on eosinophils (eosinophils [1]; minipigs, 0, 7.5, 25 and 75 (50 from Study Day 46) mg/kg daily oral gavage, 39 weeks): dose- and time-dependent reduction in eosinophils
- mean eosinophils at week 16 recovered to, of baseline levels (eosinophils [2]; 150 mg/day group): 47%
- mean eosinophils at week 16 recovered to, of baseline levels (eosinophils [2]; 300 mg/day group): 73%
- effect on eosinophil counts (eosinophils [2]; ALS subjects, Phase 2): dose- and time-dependent decrease in eosinophil counts
- effect on eosinophil counts in a subject with hypereosinophilia at baseline (eosinophils [2]; one Phase 2 subject, Part 2 baseline, persisted through month 12): decrease in eosinophil counts
- effect on peripheral blood eosinophil count (eosinophils [3]; 300 mg daily, after 8-12 weeks of treatment, persisted for the duration of the trial): profound decrease
- effect on eosinophil counts in a subject with elevated baseline eosinophil counts (eosinophils [3]; Phase 3 subject with highest baseline eosinophil count, persisted through month 12): decrease in eosinophil counts
- decrease in eosinophil count in subjects with higher eosinophil counts (eosinophils [3]; subjects (n=42) with baseline >0.25×10^9/L, after 6 months of treatment): 75%
- time at which basophil decline reached plateau (basophils): ~4 month
- circulating levels of eosinophils compared to vehicle-treated controls (eosinophils [4]): significantly reduced
- infiltrating white blood cells in bronchoalveolar lavage fluid [5]: dose-dependent decrease in infiltrating white blood cells
- tolerability [6]: well-tolerated

Source: patent publication US10828284B2, “Compositions and methods for treating conditions related to elevated levels of eosinophils and/or basophils” (Knopp Biosciences LLC, priority 2013, dated 2020)
